# ChEMBL document CHEMBL3856252, “Truncated Autoinducing Peptides as Antagonists of Staphylococcus lugdunensis Quorum Sensing” (J Med Chem, 2016)
# Where a SMILES comes first, the peptide text is derived from it.
# Assays:
# [1] = Inhibition of Staphylococcus aureus RN6390B quorum sensing system AgrC-1 using cephalosporin/nitrocefin as substrate by P3 reporter assay
# [2] = Competitive inhibition of Staphylococcus aureus MW2 quorum sensing system AgrC-3 after 24 hrs in presence of mouse IgG2a by YFP reporter gene assay
# [3] = Competitive inhibition of Staphylococcus aureus SA502A quorum sensing system AgrC-2 after 24 hrs in presence of mouse IgG2a by YFP reporter gene assay
# [4] = Competitive inhibition of Staphylococcus aureus RN9372 quorum sensing system AgrC-2 by colorimetric analysis
# [5] = Competitive inhibition of Staphylococcus aureus quorum sensing system AgrC-3 by colorimetric analysis
# [6] = Competitive inhibition of Staphylococcus aureus RN9222 quorum sensing system AgrC-1 by colorimetric analysis
compound,measurement,setting,value
"CC[C@H](C)[C@@H]1NC(=O)[C@H](Cc2ccccc2)NC(=O)[C@H](CC(=O)O)NC(=O)[C@@H](NC(=O)[C@@H](NC(=O)[C@H](CO)NC(=O)[C@@H](N)Cc2ccc(O)cc2)[C@@H](C)O)CSC(=O)[C@H](CCSC)NC1=O (HELM PEPTIDE1{Y.S.T.C.D.F.I.M}$PEPTIDE1,PEPTIDE1,4:R3-8:R2$$$V2.0)",IC50,[1],20 nM
"CC(=O)N[C@H]1CSC(=O)[C@H](Cc2ccccc2)NC(=O)[C@H](Cc2ccc(O)cc2)NC(=O)[C@H](CO)NC(=O)[C@H](C)NC1=O (HELM PEPTIDE1{[ac].C.A.S.Y.F}$PEPTIDE1,PEPTIDE1,2:R3-6:R2$$$V2.0)",IC50,[2],13 nM
same,IC50,[3],160 nM
"CC(=O)N[C@H]1CSC(=O)[C@H](Cc2ccccc2)NC(=O)[C@H](Cc2ccc(O)cc2)NC(=O)[C@H](C)NC(=O)[C@H](CC(N)=O)NC1=O (HELM PEPTIDE1{[ac].C.N.A.Y.F}$PEPTIDE1,PEPTIDE1,2:R3-6:R2$$$V2.0)",IC50,[4],420 nM
same,IC50,[5],40 nM
same,IC50,[6],380 nM
